# According to publication PMC12706802, “Ortho-Hydroxyanilides: Slow-Acting, Selective Histone Deacetylase 1/2 Inhibitors Suitable for Photocaging Applications” (ACS Pharmacology & Translational Science, 2025):
# Values joined by “and” are separate entries in the source; they are usually repeats but may differ in a detail not shown here. Identical values can stand only once.
# How the values were obtained:
# MDA-MB-231 cells = test: MTT cell viability (antiproliferative) assay; assay type: cell-based; conditions: Homo sapiens
# Description: To evaluate the cytotoxicity of the selected HDAC inhibitors, compounds were tested for their antiproliferative activity against MV-3 and MDA-MB-231 cells using the MTT assay. […] MTT (3-(4,5-dimethylthiazol-2-yl)-2,5-diphenyltetrazolium bromide; Catalog# A2231; BioChemica, Applichem GmbH, Darmstadt, Germany) was utilized to measure the antiproliferative effect. Depending on the incubation time, 3000 MV-3 cells (72 h), 2000 MV-3 cells (96 h) or 1000 MV-3 cells (120 h) per well were seeded in 96-well plates (Starlab GmbH, Hamburg, Germany) with each well containing 199 μL of volume. […] Next, predilutions of the test compounds were prepared in DMSO. […] Subsequently, cells were treated with 1.0 μL of the dilution series of the test compounds. […] After removing the supernatant, formazan was solubilized in 200.0 μL DMSO. The absorbance was measured at 570 nm with background subtraction at 690 nm using a Multiskan microplate photometer (Thermo Fisher Scientific, Waltham, MA, USA). The obtained data were normalized to PBS, considering 100% viability.
# HDAC2 [1] = conditions: literature value for Cpd-60; ref number not given; cited from earlier work
# HDAC6 = tested on: HDAC6; set-up: method as in earlier work; conditions: Figure 1; ref 'Data taken from refs' (numbers not given); cited from earlier work
# HDAC3 = tested on: HDAC3; set-up: method as in earlier work; conditions: Figure 1 and b11; ref 'Data taken from refs' (numbers not given); cited from earlier work
# HDAC4–8 = tested on: HDAC4–8; set-up: method as in number not given; conditions: literature value for Cpd-60; ref number not given; cited from earlier work
# HDAC1 [2] = target: T1, HDAC1 (Homo sapiens, UniProt Q13547); test: IC50-shift (preincubation time) experiments
# T1 sequence (Q13547 whole entry): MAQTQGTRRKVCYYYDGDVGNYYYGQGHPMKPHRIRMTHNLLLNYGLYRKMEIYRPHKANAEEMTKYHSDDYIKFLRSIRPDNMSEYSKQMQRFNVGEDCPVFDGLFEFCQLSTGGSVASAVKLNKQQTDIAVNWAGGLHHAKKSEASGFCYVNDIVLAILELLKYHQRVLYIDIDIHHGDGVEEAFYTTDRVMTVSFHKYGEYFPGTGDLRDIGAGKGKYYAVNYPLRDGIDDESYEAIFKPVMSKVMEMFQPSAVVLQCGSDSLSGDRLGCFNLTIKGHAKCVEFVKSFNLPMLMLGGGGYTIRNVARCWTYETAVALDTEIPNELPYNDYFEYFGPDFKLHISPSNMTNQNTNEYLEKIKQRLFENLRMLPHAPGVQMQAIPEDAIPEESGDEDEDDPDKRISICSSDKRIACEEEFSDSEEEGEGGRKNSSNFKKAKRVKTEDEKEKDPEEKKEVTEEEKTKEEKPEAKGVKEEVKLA
# HDAC1 [3] = target: T1, HDAC1; test: Fluorescence-based biochemical HDAC enzyme inhibition assay (ZMAL substrate); conditions: HDAC1 IC50, preincubation of enzyme and inhibitor 1 h at RT; no irradiation
# human recombinant HDAC6 = target: T2, human recombinant HDAC6 (Homo sapiens, UniProt Q9UBN7); test: as above
# T2 sequence (Q9UBN7 1-1215): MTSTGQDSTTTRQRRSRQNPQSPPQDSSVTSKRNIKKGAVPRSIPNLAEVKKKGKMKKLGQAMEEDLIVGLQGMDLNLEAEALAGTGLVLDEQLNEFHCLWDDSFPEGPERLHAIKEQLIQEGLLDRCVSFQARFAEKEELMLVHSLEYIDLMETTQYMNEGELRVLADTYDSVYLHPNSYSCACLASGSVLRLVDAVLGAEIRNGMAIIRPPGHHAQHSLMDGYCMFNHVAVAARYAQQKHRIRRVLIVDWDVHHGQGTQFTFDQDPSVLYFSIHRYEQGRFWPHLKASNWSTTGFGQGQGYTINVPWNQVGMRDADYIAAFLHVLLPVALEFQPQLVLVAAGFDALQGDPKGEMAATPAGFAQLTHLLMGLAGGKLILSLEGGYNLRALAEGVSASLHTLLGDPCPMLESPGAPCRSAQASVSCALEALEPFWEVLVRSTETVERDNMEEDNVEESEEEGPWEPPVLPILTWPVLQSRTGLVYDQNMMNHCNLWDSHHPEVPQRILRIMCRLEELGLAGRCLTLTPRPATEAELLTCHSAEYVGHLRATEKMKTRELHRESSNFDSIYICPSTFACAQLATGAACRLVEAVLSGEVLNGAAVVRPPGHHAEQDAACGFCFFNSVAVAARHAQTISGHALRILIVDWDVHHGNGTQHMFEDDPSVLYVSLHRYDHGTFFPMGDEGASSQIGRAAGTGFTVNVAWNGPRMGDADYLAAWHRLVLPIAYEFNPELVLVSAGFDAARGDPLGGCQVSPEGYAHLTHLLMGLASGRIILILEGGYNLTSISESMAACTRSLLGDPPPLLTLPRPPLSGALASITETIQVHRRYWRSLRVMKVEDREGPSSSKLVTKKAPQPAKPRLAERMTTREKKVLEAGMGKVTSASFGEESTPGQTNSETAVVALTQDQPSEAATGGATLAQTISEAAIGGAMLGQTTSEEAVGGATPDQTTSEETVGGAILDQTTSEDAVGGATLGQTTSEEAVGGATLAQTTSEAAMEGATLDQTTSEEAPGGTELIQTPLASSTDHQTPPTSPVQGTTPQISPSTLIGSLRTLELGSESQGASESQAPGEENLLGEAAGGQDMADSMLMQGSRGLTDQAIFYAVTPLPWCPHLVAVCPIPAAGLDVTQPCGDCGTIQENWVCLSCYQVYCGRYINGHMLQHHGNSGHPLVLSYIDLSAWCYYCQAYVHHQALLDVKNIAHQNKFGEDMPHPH
# human recombinant HDAC3 = human recombinant HDAC3 (Homo sapiens, UniProt O15379); test: as above; conditions: HDAC3 IC50, preincubation of enzyme and inhibitor 1 h at RT; no irradiation
# Chain of human recombinant HDAC3 (O15379 whole entry): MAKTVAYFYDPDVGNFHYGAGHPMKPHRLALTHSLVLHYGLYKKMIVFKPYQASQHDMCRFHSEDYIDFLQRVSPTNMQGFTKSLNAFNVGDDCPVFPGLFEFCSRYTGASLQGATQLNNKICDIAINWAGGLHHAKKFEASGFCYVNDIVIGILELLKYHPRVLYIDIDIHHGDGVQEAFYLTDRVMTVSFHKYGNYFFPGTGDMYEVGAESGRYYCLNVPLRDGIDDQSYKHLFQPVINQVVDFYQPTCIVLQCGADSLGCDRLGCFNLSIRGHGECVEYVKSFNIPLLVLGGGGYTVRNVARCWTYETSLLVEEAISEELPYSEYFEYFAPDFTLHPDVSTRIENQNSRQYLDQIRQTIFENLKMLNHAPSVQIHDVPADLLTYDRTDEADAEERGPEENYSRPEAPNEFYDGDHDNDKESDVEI
# Chain of human recombinant HDAC3 (Q9Y618 395-489 partner limits assumed): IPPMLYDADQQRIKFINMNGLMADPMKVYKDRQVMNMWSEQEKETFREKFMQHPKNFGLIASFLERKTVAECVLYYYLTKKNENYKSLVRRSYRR
# HDAC1 [4] = target: T1, HDAC1; test: 100-fold jump-dilution experiments; conditions: 1 h incubation at 5-fold IC50, then 1:100 dilution
# HDAC2 [5] = target: T3, HDAC2 (Homo sapiens, UniProt Q92769); test: IC50-shift (preincubation time) experiments
# T3 sequence (Q92769 whole entry): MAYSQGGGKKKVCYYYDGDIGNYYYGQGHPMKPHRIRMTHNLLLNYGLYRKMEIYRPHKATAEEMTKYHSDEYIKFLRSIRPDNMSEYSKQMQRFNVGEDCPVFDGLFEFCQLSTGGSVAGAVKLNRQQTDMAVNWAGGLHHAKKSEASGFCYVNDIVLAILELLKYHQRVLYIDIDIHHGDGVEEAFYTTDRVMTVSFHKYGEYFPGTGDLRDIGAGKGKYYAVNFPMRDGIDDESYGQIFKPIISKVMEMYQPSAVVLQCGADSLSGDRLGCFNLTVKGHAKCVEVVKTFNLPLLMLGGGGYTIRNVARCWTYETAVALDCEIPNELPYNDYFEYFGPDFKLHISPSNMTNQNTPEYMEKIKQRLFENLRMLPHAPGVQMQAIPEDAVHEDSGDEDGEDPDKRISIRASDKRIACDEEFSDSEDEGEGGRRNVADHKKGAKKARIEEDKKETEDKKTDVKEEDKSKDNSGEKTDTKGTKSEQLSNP
# HDAC2 [6] = target: T3, HDAC2; test: 100-fold jump-dilution experiments; conditions: 1 h incubation at 10-fold IC50, then 1:100 dilution
# HDAC2 [7] = target: T3, HDAC2; test: Fluorescence-based biochemical HDAC enzyme inhibition assay (ZMAL substrate); conditions: HDAC2 IC50, preincubation of enzyme and inhibitor 1 h at RT; no irradiation
# [8] = MDA-MB-231, light or radiation study, incubation time 120 h, no irradiation
# [9] = MDA-MB-231, incubation time 96 h
SMILES,EC50 (MDA-MB-231 cells; [8]),EC50 (MDA-MB-231 cells; [9]),IC50 (HDAC2 [1]),IC50 (HDAC6),IC50 (HDAC3),IC50 (HDAC4–8),"IC50 (HDAC1 [2]; HDAC1 IC50, preincubation time 5 min)","IC50 (HDAC1 [2]; HDAC1 IC50, preincubation time 30 min)","IC50 (HDAC1 [2]; HDAC1 IC50, preincubation time 60 min)","IC50 (HDAC1 [2]; HDAC1 IC50, preincubation time 120 min)",IC50 (HDAC1 [3]),IC50 (human recombinant HDAC6),IC50 (human recombinant HDAC3),dissociation behavior from HDAC1 upon 100-fold dilution (HDAC1 [4]),"IC50 (HDAC2 [5]; HDAC2 IC50, preincubation time 5 min)","IC50 (HDAC2 [5]; HDAC2 IC50, preincubation time 30 min)","IC50 (HDAC2 [5]; HDAC2 IC50, preincubation time 60 min)","IC50 (HDAC2 [5]; HDAC2 IC50, preincubation time 120 min)",dissociation behavior from HDAC2 upon 100-fold dilution (HDAC2 [6]),IC50 (HDAC2 [7])
"CC(=O)Nc1ccc(C(=O)Nc2cc(-c3cccs3)ccc2N)cc1 [Cpd-60, reference compound]",890 ± 250 nM,3210 ± 1010 nM,49 nM,[…],[…],[…],–,–,–,–,–,–,–,–,–,–,–,–,–,–
"CC(=O)Nc1ccc(C(=O)Nc2cc(-c3ccccc3)ccc2O)cc1 [ST13, 4-Acetamido-N-(4-hydroxy-[1,1′-biphenyl]-3-yl)-benzamide]",4870 ± 860 nM,13900 ± 3400 nM,–,–,–,–,55 ± 7 nM,36 ± 4 nM,34 ± 5 nM,25 ± 3 nM,23 ± 4 nM,> 10000 nM,4300 nM and 6640 nM,tight-binding properties,82 ± 12 nM,83 ± 3 nM,75 ± 5 nM,49 ± 9 nM,tight-binding properties,49 ± 3 nM
